The values below come from patent US11148998B2, “Dimethyl-nonatetraenyl-trimethyl-cyclohexyl compounds and uses thereof” (The Regents of the University of Michigan, priority 2017, dated 2021).

The test system of series [1] is human epidermal keratinocytes. The series is described as follows: Retinoid-induced keratinocyte desquamation (cell-cell detachment, trypsin/EDTA). In kind it is cell-based. Conditions: two days, KBM 1.5 mM calcium. As for the experimental part: At the end of the incubation period, the cells were exposed to a combination of trypsin and EDTA and the percentage of cells that detached from one another were assessed over time.
Human epidermal keratinocytes are isolated from the same skin biopsies as fibroblasts and grown in monolayer culture using Keratinocyte Growth Medium (KGM) as described previously (see, e.g., Varani J, et al., J Clin Invest. 1994; Varani J, et al., J. Invest. Dermatol. 94:717-723, 1990; Varani J, et al., J. Invest. Dermatol. 1989; 93:449-454). Growth is at 37° C. in a humidified atmosphere containing 5% CO2 and 95% air. For some studies, experiments use the HaCat line of immortalized human epidermal keratinocytes in place of primary or low-passage cells. Growth for these cells is exactly as with low-passage keratinocytes.
When keratinocytes are grown in monolayer culture, proliferation is optimal under low-calcium (0.05-0.15 mM) conditions. When the calcium concentration is raised to 1.5 mM, the keratinocyte differentiation occurs and proliferation slows. Under such conditions, strong cell-cell connections are made. […] The end result is that cells separate more easily from one another (see, e.g., Varani J, et al., J. Invest. Dermatol. 1989; 93:449-454; Varani J, et al., J Invest. Dermatol. 97:917-921, 1991; Varani J, et al., Am. Path. 138:887-895, 1991). Retinoid efficacy in acne is dependent, in part at least, on reduced epidermal cohesion and ability of acne lesional skin to slough during washing.
As a way to quantify detachment, keratinocytes grown for 2 days in culture medium containing 1.5 mM calcium were washed and exposed to a combination of trypsin and EDTA. Cell detachment from neighboring cells was assessed at timed intervals.

The test system of series [2] is serum pro-inflammatory cytokines. Conditions: mouse, in vivo. The source says:
Each of the 4 experimental retinoids was made up in DMSO as 0.1% and 0.3% solutions. The material was applied to the treatment area (2 cm^2 area) on a dot marked area on the inter-scapular back) once daily for 7 consecutive days or for 21 consecutive days. The test agent was gently rubbed into the test site after application. As a control, Tretinoin-0.1% was used. […] This is a commonly-prescribed anti-acne medicine. A set amount of the test article, DMSO, DMSO plus test drug, or Tretinoin cream (35 mg) was delivered using a Gilson MICROMAN fully adjustable positive placement pipette.
Serum was obtained from all mice at the end of the study and evaluated for levels of pro-inflammatory cytokines. For this, the same multiplex ELISA used with human samples was employed except that mouse-recognizing antibodies replaced antibodies used to detect the human counterparts.

For series [3], the system named is rhino mouse skin. The series is described as follows: Rhino mouse topical treatment: skin histology (horn-filled utriculi, epidermal thickness, inflammation). The class given is in vivo. Conditions: for Epidermal thickness / Utriculus number / skin structure in histology (dermal thickness, utriculi, necrosis, infiltration) / inflammatory response / inflammatory cell infiltrate in histological sections (in words) / Inflammatory index: 21 days; for Inflammatory index: scored 0 to 4+. From the text: FIGS. 12A-C: Efficacy of retinoids at normalizing structure of rhino mouse skin after topical treatment for 21 days.
FIGS. 13A-C: Dose related effect of Example 2 on rhino mouse skin.
The rhinomouse model is an industry-standard pre-clinical model for evaluation of retinoids for anti-acne activity. The mice can be treated topically over a course of days with the desired compound (either formulated or in liquid solvent). During the course of treatment, the animals can be evaluated grossly for skin irritation. At the end of the treatment phase, the animals are euthanized. Skin from treated sites can be evaluated for efficacy—reduction in the number of horn-filled utriculi—and for histological evidence of inflammation.
As a control, Tretinoin-0.1% was used. […] This is a commonly-prescribed anti-acne medicine.
One day after the last treatment, animals were euthanized. The animals were injected with 7 ml 10% buffered formalin after euthanasia. 15 minutes later the treated area on the back of the mouse was removed and cut into 8 pieces. Every other piece was taken, so four pieces of skin were mounted in one cassette and fixed for histology. An extra piece of skin from a non-treated area was also evaluated.
Hematoxylin and eosin stained sections were evaluated microscopically for epidermal thickness with measurements made in the inter-follicular regions at 4 representative sites per tissue strip.
The number of horn-filled utriculi was determined by direct counting in the entire section of skin. Each of the four sections per biopsy was used for determining the number of utriculi. Section lengths were measured as a way to normalize findings. Typically, the section of skin varied from 16-20 mm.
Slides were examined microscopically and inflammation was scored on a 0 to 4+ basis. A score of zero indicated no inflammation while increasing collection of inflammatory cells was identified with increasing score. Slides were also evaluated to determine if inflammation was confined to the dermis or whether there was epidermal inflammation. Dermal inflammation was assessed to determine if inflammatory cells were scattered throughout the dermis or whether small abscesses were also present. Finally, the inflammatory lesions were evaluated to determine whether they consisted of primarily mononuclear cells, granulocytic cells or both. A similar scale has been used previously in the assessment of skin irritation.
At the end of the in-life portion of the study, mice were euthanized by CO2 overdose. Hematoxylin and eosin-stained histological sections from each mouse in the control, ATRA-treated and Compound 2-treated groups were evaluated with regard to the number of horn-filled utriculi, epidermal thickness, and inflammation. Briefly, the epidermis of control mice consisted of a thin epidermis with large numbers of horn-filled utriculi (98+10 per 20 mm of epidermal linear length). […] Both the ATRA-treated mouse (top right panel) the Compound 2 treated skin (bottom panel) show both much thickened […] and disappearance of utriculi. […] There were large numbers of inflammatory cells in the dermis. Microabscesses could be seen in places, and migration of inflammatory cells into the epidermis was also evident. The infiltrate consisted of both mononuclear cells and granulocytes. […] The three other experimental retinoids were also examined along with Compound 2. […] In FIG. 13 it can be seen that during the dosing period 0.1% of Compound 2 led to skin thickening, but incomplete resolution of the utricali, whereas at 0.3% the utricali were more fully resolved.

Where [4] appears, read: topical, concentration not given.

Structures are written as SMILES.

Take `CC1=C(/C=C/C(C)=C/C=C/C(C)=C/C(=O)O)C(C)(C)CCC1` [ATRA, all-trans retinoic acid, reference compound]: in series [1] (1.0 μg/mL), the “ease of cell-cell separation (percentage of cells detached over time)” value (“ease … (percentage of cells detached over time)” below) is given as “increased the ease of cell-cell separation as compared to control”. In addition, in series [2], the IL-1β serum level entry was “low”, the IL-6 serum level turned out to be 1.55 ± 0.66 pg/mL, the KC/IL-8 serum level came to 23 ± 4 pg/mL and the MCP-1 serum level is given as 158 ^± 43 pg/mL. Besides, in series [2], the TNF-α serum level entry is on record as “low”; the “serum pro-inflammatory cytokine levels compared to control mice (in words)” value is “increase in levels of MCP-1, IL-6 and KC/IL-8”. In addition, in series [3] (0.1% topical), the Epidermal thickness is recorded as 68 ± 17; the Utriculus number was 2 ± 2 per 20 mm of epidermal linear length; the “skin structure in histology (dermal thickness, utriculi, necrosis, infiltration)” value is “overall dermal layer is considerably thicker, and the utriculi have gone, the dermal layer has large necrotic areas, and is heavily infiltrated with activated leukocytes and macrophages”. For the same compound, in series [3] (setting [4]), the “inflammatory response / inflammatory cell infiltrate in histological sections (in words)” value is given as “intense inflammatory cell infiltrate”.

Consider `CC1=C(/C=C/C(C)=C\C=C\C(C)=C\C(=O)N(C)CC(=O)C(C)(C)C)C(C)(C)CCC1` [Example 1, (2E,4E 6Z,8E)-N-(3,3-dimethyl-2-oxobutyl)-N,3,7-trimethyl-9-(2,6,6-trimethylcyclohex-1-en-1-yl)nona-2,4,6,8-tetraenamide], for which the “ease … (percentage of cells detached over time)” value in series [1] (1.0 μg/mL) was “more potent than ATRA”. In series [2], the IL-1β serum level result was “low” and the TNF-α serum level entry was “low”. For the same compound, in series [3] (setting [4]), the “inflammatory response / inflammatory cell infiltrate in histological sections (in words)” value is “did not produce an inflammatory response” and the “number of utriculi compared to control (in words)” value is recorded as “reduced the number of utriculi as compared to control”.

As for `CC1=C(/C=C/C(C)=C\C=C\C(C)=C\C(=O)N(C)CC(=O)c2ccccc2)C(C)(C)CCC1` [Example 2, (2E,4E 6Z,8E)-N,3,7-trimethyl—N-(2-oxo-2-phenylethyl)-9-(2,6,6-trimethylcyclohex-1-en-1-yl)nona-2,4,6,8-tetraenamide], the “ease … (percentage of cells detached over time)” value in series [1] (2.5 μg/mL) is on record as “comparable to ATRA at 1 μg/mL”. Besides, in series [2], the IL-1β serum level result is “low” and the TNF-α serum level result is on record as “low”. In addition, in series [3] (0.1% topical), the Epidermal thickness is recorded as 45 ± 8; the Utriculus number is recorded as 7 ± 5 per 20 mm of epidermal linear length; the “skin structure in histology (dermal thickness, utriculi, necrosis, infiltration)” value is recorded as “normalization of dermal thickness, but still many structural remnants of utriculi”; the Inflammatory index is recorded as 1.1 ± 0.6. In series [3] (0.3% topical), the Epidermal thickness came to 44 ± 6, the Utriculus number was 5 ± 3 per 20 mm of epidermal linear length and the Inflammatory index was found to be 0.9 ± 0.4. Moreover, the “inflammatory response / inflammatory cell infiltrate in histological sections (in words)” value in series [3] (setting [4]) was “little inflammatory cell infiltrate”.
